Legend:
Format in all cases: cell-based, human
[1] = system: NCIH727; test: CellTiter-Glo Reagent cancer cell line proliferation assay, NCIH727; conditions: NCIH727, KRAS(G12V) heterozygous
Text: (§1) The following cancer cell lines were employed: • AsPC-1 human pancreatic adenocarcinoma, homozygous KRAS(G12D), (ATCC, #CRL-1682); A-427 human lung carcinoma, heterozygous KRAS(G12D), (ATCC, #HTB-53); AGS human gastric adenocarcinoma, heterozygous KRAS(G12D), (ATCC, #CRL-1739); GP2D human colon adenocarcinoma, heterozygous KRAS(G12D), (Sigma Aldrich, 95090714); SW1990 human pancreatic adenocarcinoma, homozygous KRAS(G12D), (ATCC, #CRL2172); LU65A human lung giant cell carcinoma, heterozygous KRAS(G12C), (JCRB Cell Bank, #JCRB0054); NCIH727 human lung carcinoid, heterozygous KRAS(G12V), (ATCC, #CRL-5815); MKN1 human gastric adenosquamous carcinoma KRAS (wt), (JCRB Cell Bank, #JCRB0252). Cell lines were cultured according to ATCC, JCRB and Sigma Aldrich recommendations.
(§2) Cells were plated in 96-well tissue culture plates at 4,000 cells/well and incubated at 37° C./5% CO2 for 24 hr in 100 μl of media. 3-fold serial dilutions of each test compound were prepared ranging from 20 μM to 1.02 nM. Cells were then treated with test compounds at various concentrations with a final concentration of 0.5% DMSO/well, and then incubated at 37° C./5% CO2 for 24 hr. 100 μl of CellTiter-Glo® Reagent (Promega Corporation, Madison, WI) was added to each well and processed according manufacturer's protocol. Results were analyzed and IC50-values were calculated in GraphPad 7 software.

[2] = system: LU65A; test: CellTiter-Glo Reagent cancer cell line proliferation assay, LU65A; conditions: KRAS(G12C) heterozygous
Text: as §1, §2

[3] = system: AGS; test: CellTiter-Glo Reagent cancer cell line proliferation assay, AGS; conditions: KRAS(G12D) heterozygous
Text: as §1, §2

For `C#Cc1c(F)ccc2cc(O)cc(-c3ncc4c(N5CC6CCC(C5)N6C(=O)CC(C)C#N)nc(OCC5(CN6CCN(CC7CCN(c8ccc9c(c8)n(C)c(=O)n9C8CCC(=O)NC8=O)CC7)CC6)CC5)nc4c3F)c12` (stereo not drawn) [Compound 136], the IC50 ([1]; Homo sapiens, NCI-H727, 24 h) was less than 100 nM, the IC50 ([2]; Homo sapiens, 24 h) was less than 100 nM and the IC50 ([3]; Homo sapiens, 24 h) was less than 100 nM.

`C#Cc1c(F)ccc2cc(O)cc(-c3ncc4c(N5CC6CCC(C5)N6C(=O)CC(C)C#N)nc(OCC5(CN6CCN(CC7CCN(c8ccc(NC9CCC(=O)NC9=O)cc8F)CC7)CC6)CC5)nc4c3F)c12` (stereo not drawn) [Compound 137] showed an IC50 ([1]; Homo sapiens, NCI-H727, 24 h) of less than 100 nM, an IC50 ([2]; Homo sapiens, 24 h) of less than 100 nM and an IC50 ([3]; Homo sapiens, 24 h) of less than 100 nM.

In the case of `C#Cc1c(F)ccc2cc(O)cc(-c3ncc4c(N5CC6CCC(C5)N6C(=O)CC(C)C#N)nc(OCC5(CN6CC7CC7C6)CC5)nc4c3OCc3ccc(-c4cn([C@H](C(=O)N5C[C@H](O)C[C@H]5C(=O)N[C@@H](CO)c5ccc(-c6ccnn6CC)cc5)C(C)C)nn4)cc3)c12` (stereo partly drawn) [Compound 138], the IC50 ([1]; 24 hr) is reported as greater than 1000 nM, the IC50 ([2]; 24 hr) is reported as greater than 1000 nM and the IC50 ([3]; 24 hr) is reported as greater than 1000 nM.

`C#Cc1c(F)ccc2cc(O)cc(-c3ncc4c(N5CCCOC6CC65)nc(OCC5(CN6CCN(CC7CCN(c8ccc9c(c8)CN(C8CCC(=O)NC8=O)C9=O)CC7)CC6)CC5)nc4c3F)c12` (stereo not drawn) [Compound 139] was tested, and the IC50 ([1]; Homo sapiens, NCI-H727, 24 h) was greater than 1000 nM, the IC50 ([2]; Homo sapiens, 24 h) was greater than 1000 nM and the IC50 ([3]; Homo sapiens, 24 h) was greater than 1000 nM.

Compound `C#Cc1c(F)ccc2cc(O)cc(-c3ncc4c(N5CC6CCC(C5)N6C(=O)CC(C)C#N)nc(OCC5(CN6CC7CC7C6)CC5)nc4c3OCc3ccc(-c4cn([C@H](C(=O)N5C[C@H](O)C[C@H]5C(=O)N[C@@H](CO)c5ccc(-c6ccnn6CC)cc5)C(C)C)nn4)cc3)c12` (stereo partly drawn) [Compound 140] has an IC50 ([1]; 24 hr) of less than 100 nM, an IC50 ([2]; 24 hr) of less than 100 nM and an IC50 ([3]; 24 hr) of less than 100 nM.

Work on `C#Cc1c(F)ccc2cc(O)cc(-c3ncc4c(N5CC6CCC(C5)N6C(=O)Cn5cc(COCCOCCOCCNc6ccc7c(c6)CN(C6CCC(=O)NC6=O)C7=O)nn5)nc(OCC56CCCN5C[C@@H](F)C6)nc4c3F)c12` (stereo partly drawn) [Compound 141] yielded an IC50 ([1]; Homo sapiens, NCI-H727, 24 h) of less than 100 nM, an IC50 ([2]; Homo sapiens, 24 h) of less than 100 nM and an IC50 ([3]; Homo sapiens, 24 h) of less than 100 nM.

In the case of `C#Cc1c(F)ccc2cc(O)cc(-c3nc(OC)c4c(N5CC6CCC(C5)N6C(=O)CC(C)C#N)nc(OCC5(CN6CCN(CC7CCN(c8cccc(NC9CCC(=O)NC9=O)c8)CC7)CC6)CC5)nc4c3F)c12` (stereo not drawn) [Compound 142], the IC50 ([1]; Homo sapiens, NCI-H727, 24 h) is reported as less than 100 nM, the IC50 ([2]; Homo sapiens, 24 h) is reported as less than 100 nM and the IC50 ([3]; Homo sapiens, 24 h) is reported as less than 100 nM.

`C#Cc1c(F)ccc2cc(O)cc(-c3nc(OC)c4c(N5CC6CCC(C5)N6C(=O)C[C@@H](C)C#N)nc(OCC5(CN6CCN(CC7CCN(c8ccc9c(c8)CN(C8CCC(=O)NC8=O)C9=O)CC7)CC6)CC5)nc4c3F)c12` (stereo partly drawn) [Compound 143] showed an IC50 ([1]; Homo sapiens, NCI-H727, 24 h) of less than 100 nM, an IC50 ([2]; Homo sapiens, 24 h) of less than 100 nM and an IC50 ([3]; Homo sapiens, 24 h) of less than 100 nM.

`C#Cc1c(F)ccc2cc(O)cc(-c3nc(OC)c4c(N5CC6CCC(C5)N6C(=O)CC(C)C#N)nc(OCC5(CNC6CCC(=O)NC6=O)CC5)nc4c3F)c12` (stereo not drawn) [Compound 145] was tested, and the IC50 ([1]; Homo sapiens, NCI-H727, 24 h) was less than 100 nM, the IC50 ([2]; Homo sapiens, 24 h) was less than 100 nM and the IC50 ([3]; Homo sapiens, 24 h) was less than 100 nM.

Compound `C#Cc1c(F)ccc2cc(O)cc(-c3nc(OC)c4c(N5CC6CCC(C5)N6C(=O)CC(C)C#N)nc(OCC5CCCN(CC6CCN(c7ccc8c(c7)CN(C7CCC(=O)NC7=O)C8=O)CC6)C5)nc4c3F)c12` (stereo not drawn) [Compound 146] has an IC50 ([1]; Homo sapiens, NCI-H727, 24 h) of less than 100 nM, an IC50 ([2]; Homo sapiens, 24 h) of less than 100 nM and an IC50 ([3]; Homo sapiens, 24 h) of less than 100 nM.

For `C#Cc1c(F)ccc2cc(O)cc(-c3nc(OC(F)(F)F)c4c(N5CC6CCC(C5)N6C(=O)CCC#N)nc(OCC5(CN6CCN(CC7CCN(c8ccc9c(c8)CN(C8CCC(=O)NC8=O)C9=O)CC7)CC6)CC5)nc4c3F)c12` (stereo not drawn) [Compound 151], the IC50 ([1]; Homo sapiens, NCI-H727, 24 h) was less than 100 nM, the IC50 ([2]; Homo sapiens, 24 h) was less than 100 nM and the IC50 ([3]; Homo sapiens, 24 h) was less than 100 nM.

In the case of `C#Cc1c(F)ccc2cc(O)cc(-c3nc(OC)c4c(N5CC6CCC(C5)N6C(=O)CC(C)C#N)nc(OCC5(CN6CCN(CC7CCN(c8ccc9c(N%10CCC(=O)NC%10=O)nn(C)c9c8)CC7)CC6)CC5)nc4c3F)c12` (stereo not drawn) [Compound 152], the IC50 ([1]; Homo sapiens, NCI-H727, 24 h) is reported as less than 100 nM, the IC50 ([2]; Homo sapiens, 24 h) is reported as less than 100 nM and the IC50 ([3]; Homo sapiens, 24 h) is reported as less than 100 nM.

Reference: patent publication US20260325654A1, “METHODS AND COMPOSITIONS FOR TARGETED PROTEIN DEGRADATION” (Ranok Therapeutics (Hangzhou) Co. Ltd., priority 2023, published 2026)
